Measured values reported in patent US20200171001A1, “COMBINATION THERAPY WITH 2,3-DIHYDRO-ISOINDOLE-1-ONE COMPOUNDS AND METHODS FOR TREATING PATIENTS WITH VARIOUS MUTATIONS” (Aptose Biosciences Inc., priority 2018, published 2020).

Assays:
[1] = tested on: malignant bone marrow or peripheral blood cells from AML patients; assay: Ex vivo drug sensitivity (MTS cell viability, IC50 and AUC) on freshly isolated primary AML patient samples, association with somatic mutations; type: cell-based, human; settings: for Sensitivity of patient samples with FLT3-ITD mutations as compared to wild-type: AML patient samples with FLT3-ITD mutations vs WT, n=118 patients; for Sensitivity of patient samples with FLT3-ITD mutations as compared to wild-type / Sensitivity of patient samples with IDH1 mutants relative to WT: FIG. 1, FIG. 2; for Sensitivity of patient samples with IDH1 mutants relative to WT: AML patient samples with IDH1 mutations vs WT; for Effectiveness (AUC of drug sensitivity) against ASXL1 mutant cells compared with wild type: ASXL1 mutant vs wild type AML cells, FIG. 5; for Effectiveness (AUC of drug sensitivity) against SRSF2 mutant cells compared with wild type: SRSF2 mutant vs wild type AML cells
Procedure: For Genomics Analysis examples 2-4 below, studies were performed according to published procedures [Tyner, J. W., Tognon, C. E., Bottomly, D. et al. Functional genomic landscape of acute myeloid leukaemia. Nature 562, 526-531 (2018) doi:10.1038/s41586-018-0623-z; Kurtz, S. E., Eide, C. […] PNAS Sep. 5, 2017 114 (36) 7554-7563], which are incorporated by reference in their entirety herein.
All patient samples were analyzed for clinical characteristics and drug sensitivity. AML, CLL, ALL and MDS/MPN and other patient samples were analyzed with respect to expanded, disease-specific panels of clinical, prognostic, genetic, cytogenetic, and surface antigen characteristics obtained from patient electronic medical records. Genetic characterization of AML samples included results of a clinical deep-sequencing panel of genes commonly mutated in hematologic malignancies (GeneTrails panel from Knight Diagnostic Laboratories, OHSU; Foundation Medicine reports from UT Southwestern).
Compound 7 and/or venetoclax were prepared in a well in a seven-point concentration series. Similar plates were prepared with the 48 indicated pairwise inhibitor combinations in seven-point fixed molar concentration series identical to those used for single agents. The final concentration of DMSO was ≤0.1% in all wells, and all sets of single-agent and combination destination plates were stored at −20° C. and thawed immediately before use. Primary mononuclear cells were plated across single-agent and combination inhibitor panels within 24 h of collection. Cells were seeded into assay plates at 10,000 cells per well in RPMI 1640 media supplemented with FBS (10%), L-glutamine, penicillin/streptomycin, and β-mercaptoethanol (10^−4 M). After 3 d of culture at 37° C. in 5% CO2, MTS reagent (CellTiter96 AQueous One; Promega) was added, optical density was measured at 490 nm, and raw absorbance values were adjusted to a reference blank value and then used to determine cell viability (normalized to untreated control wells).
Normalized viability values at each dose of a seven-point dilution series for Compound 7, venetoclax or combinations of the two compounds were analyzed for each of numerous primary leukemia samples. Dose concentrations were log 10-transformed, and a probit regression curve was fit to each seven-point drug sensitivity profile by using maximum-likelihood estimation for the intercept and slope. This parametric model was chosen over a polynomial because the probit's monotonic shape reflects a dose-response curve typically seen in samples incubated with cytotoxic or inhibitory agents. Normalized viability values greater than 100%, indicating higher cell viability than the average viability across control wells on a given plate, were truncated to 100% to produce a percentage response variable amenable to probit modeling. From the fitted probit curve for each sample/drug pairing, the IC50 was defined as the lowest concentration to achieve 50% predicted viability and the AUC was computed by integration of the curve height across the tested dose range. If the predicted cell viability (i.e., probit curve height) was ≤50% at the lowest tested dose or >50% across the entire dose range, the IC50 was designated as the lowest dose or highest dose, respectively. For sensitivity profiles with 100% normalized viability at all seven dose points, the IC50 and AUC were designated as the highest tested dose and the maximum possible AUC, respectively. For sensitivity profiles with 0% viability at all seven dose points, the IC50 and AUC were designated as the lowest tested dose and a value (0.5) just below the minimum probit-derived AUC, respectively.
Genomics analysis of Compound 7 was performed by testing the association of somatic mutations and expression data with Compound 7 response on freshly harvested malignant bone marrow or peripheral blood cells from AML patients. […]

[2] = tested on: B-cell malignant cell lines (e.g. AML cell lines); assay: Potency against B-cell malignant cell lines compared with conventional IDH1 therapeutic agents; type: cell-based

Structure (SMILES) | Sensitivity of patient samples with FLT3-ITD mutations as compared to wild-type [1] | Sensitivity of patient samples with FLT3-ITD mutations as compared to wild-type ([1]; listed as compound 7) | Sensitivity of patient samples with IDH1 R132 residue mutants relative to WT ([1]; AML patient samples with IDH1 R132 residue mutants (n=6), on average, vs WT) | Sensitivity of patient samples with IDH1 mutants relative to WT [1] | Sensitivity of patient samples with IDH1 mutants relative to WT ([1]; listed as compound 7) | Effectiveness (AUC of drug sensitivity) against ASXL1 mutant cells compared with wild type ([1]; 72-hour culture) | Effectiveness (AUC of drug sensitivity) in AML cells with IDH mutations compared to IDH wild type ([1]; IDH mutant vs IDH wild type AML cells, 72-hour culture, FIG. 4) | Effectiveness (AUC of drug sensitivity) against SRSF2 mutant cells compared with wild type ([1]; 72-hour culture, FIG. 4) | Effectiveness (AUC of drug sensitivity) in AML cells with TP53 mutations ([1]; TP53 mutant vs TP53 wild type AML cells, 72-hour culture, FIG. 3) | IC50 towards killing cells in AML patient bone marrow samples with IDH1 mutations ([1]; all patient samples with IDH1 mutations, FIG. 2) | Potency relative to conventional IDH1 therapeutic agents (e.g., Tibsovo) [2]
Cc1cnc(-c2ccc(-c3ccc(NC(=O)Nc4c(F)cc(F)cc4F)cc3F)c3c2C(=O)NC3)[nH]1 [Compound 7, 1-{3-fluoro-4-[7-(5-methyl-1H-imidazol-2-yl)-1-oxo-2,3-dihydro-1H-isoindol-4-yl]-phenyl}-3-(2,4,6-trifluorophenyl)urea] | highly sensitive | more sensitive | significantly greater sensitivity | highly sensitive | greater sensitivity | just as effective | substantially more effective | just as effective | retains effectiveness | particular low | more potent
CC1(COc2ccc3c(c2)ncn3-c2ccc3cccc(N4CCC(N)CC4)c3n2)COC1 [crenolanib, reference compound] | – | – | – | – | – | appear resistant | – | appear resistant | – | – | –
